Laboratory results taken from patent US7625887B2, “Receptor agonists” (Takeda Pharmaceutical Company Limited, priority 2003, dated 2009).
pEC50: −log10 of the molar value.

Key:
NCI-H716 cells [1] = assay: intracellular cAMP production increasing action in NCI-H716 cells; type: cell-based, human; settings: 10 μM, 2 hrs; production amount in TLCA (50 μM) was 100%; Base 11
Method: NCI-H716 (ATCC) was suspended in a medium (Dulbecco's Modified Eagle Medium (DMEM, Invitrogen) supplemented with 10% fetal bovine serum (Invitrogen), 100 U/ml penicillin and 100 μg/ml streptomycin), seeded in a 96 well plate, cultured for 2 days and used for cAMP production assay. As a cAMP assay buffer, modified Krebs-Ringer bicarbonate buffer (KRBH, 116 mM NaCl, 4.7 mM KCl, 1.2 mM KH2PO4, 1.2 MM MgSO4, 2.5 mM CaCl2, 25 mM NaHCO3, 24 mM HEPES pH 7.3), supplemented with glucose 5.5 mM, bovine serum albumin (BSA) 0.1%, and 3-isobutyl-1-methylxanthine (IBMX, Sigma) 1 mM, was used. The cells were washed once with cAMP assay buffer. Bile acids (50 μM) diluted with cAMP assay buffer or the compounds of the present invention (10 μM) were added thereto and the cells were incubated for 2 hrs. The culture supernatant was discarded, and the cAMP production amount was measured by cAMP Screen System (ABI). In the Table, Base means non-addition of a test compound.

NCI-H716 cells [2] = assay: GLP-1 secretion from NCI-H716 cell line; type: cell-based, human; settings: 5 μM, 2 hrs; secretion amount in Base was 100%
Method: NCI-H716 cells secrete Glucagon-like peptide-1 (GLP-1). GLP-1 is a peptide useful for controlling blood glucose level because it acts on the pancreas to cause secretion of insulin and the like. In the same manner as in Experimental Example 9, NCI-H716 (ATCC) was seeded in a 96 well plate and, after incubation for 2 days, used for the following secretion test. As a buffer for secretion test, modified Krebs-Ringer bicarbonate buffer (KRBH, 116 mM NaCl, 4.7 mM KCl, 1.2 mM KH2PO4, 1.2 mM MgSO4, 2.5 mM CaCl2, 25 mM NaHCO3, 24 mM HEPES, pH 7.3) supplemented with glucose 5.5 mM and BSA 0.1% was used. The cells were washed once with the buffer for secretion test, preincubated at 37° C. under 5% CO2, bile acid diluted with the buffer for secretion test was added and the cells were cultured at 37° C. under 5% CO2 for 2 hrs. The cell culture supernatant was collected, cryopreserved and the GLP-1 content in the supernatant was measured using a GLP-1 measurement EIA kit (Linco) The results are shown in Table 9. In the Table, Base means non-addition of a test compound.

guinea pig TGR5 = assay: cAMP production increasing activity in guinea pig TGR5 expressing CHO cells; type: cell-based; settings: test compound 2 μM; 10 μM lithocholic acid = 100%; average of 3 groups
[3] = test system: guinea pig peripheral blood mononuclear cells; assay: TNF secretion in LPS-stimulated guinea pig peripheral blood mononuclear cells; type: cell-based; settings: 16 hrs, test compound 10 μM; non-addition: 160 with LPS, 13 without
Method: (§1) The peripheral blood was taken from guinea pig, and mononuclear cell fraction was obtained by a density separation method using Ficoll-Paque PLUS (Amersham Pharmacia). The fraction at a concentration of 1×10^5/well was cultured for 16 hrs in the presence of […] LPS in a 96-well plate upon addition of bile acid or a test compound. The culture supernatant was collected and TNF and IL-6 in the supernatant were quantitated.
The TNF secretion amount in the culture supernatant was measured in the same manner as in Experimental Example 7.

[4] = test system: guinea pig peripheral blood mononuclear cells; assay: IL-6 secretion in LPS-stimulated guinea pig peripheral blood mononuclear cells; type: cell-based; settings: 16 hrs, test compound 10 μM; non-addition: 520 with LPS, 32 without
Method: as §1
The quantitation of IL-6 in the culture supernatant was performed using IL-6 dependent cell line 7TD1 (RIKEN Institute) with its growth promoting action as an index. First, 7TD1 cells were suspended in a basic medium (RPMI1640 (Invitrogen) supplemented with 1% non-essential amino acid (Invitrogen) and 55 μM 2-mercaptoethanol (Invitrogen)) and seeded in a 96-well plate at a concentration of 2×10^3/well. Immediately after seeding, peripheral blood mononuclear cell culture supernatant diluted with a dilution medium (the above-mentioned basic medium supplemented with 10% FBS) was added and the cells were cultured for 2 days. The IL-6 content was determined by measuring the growth of the 7TD1 cells in the obtained culture product using a CellTiter-Glo (Promega). As the standard sample, human recombinant IL-6 (Genzyme) was used.

[5] = test system: guinea pig intestine primary culture cells; assay: GLP-1 secretion from guinea pig intestine primary culture cells; type: cell-based; settings: test compound 10 μM, 90 min
Method: Colon mucous membrane of guinea pig (Hartley, male, Charles River Japan, Inc.) was removed and subjected to an enzyme treatment to give a cell dispersion according to the following method.
(§2) The enzyme solution used was obtained by dissolving 5 mg/ml Collagenase (Sigma), 5 mg/ml Hyaluronidase (Sigma) and 0.5 mg/ml DNaseI (Sigma) in a medium. The medium used was Dulbecco's Modified Eagle Medium (DMEM, Invitrogen) supplemented with 4.5 g/l Glucose, 5% FBS (Invitrogen), 100 units/ml Penicillin (Invitrogen), 100 μg/ml Streptomycin (Invitrogen), 50 μg/ml Gentamicin (Invitrogen) and 20 mM Hepes (pH 7.3). After digestion by the enzyme solution at 37° C., the tissue sections were prepared into dispersed cells by passing through a pipette 4 times and the cells were collected. The collected cells were washed with a buffer (incubation buffer) obtained by adding 5.5 mM Glucose and 0.1% BSA to a modified Krebs-Ringer bicarbonate buffer (KRBH, 116 mM NaCl, 4.7 mM KCl, 1.2 mM KH2PO4, 1.2 MM MgSO4, 2.5 mM CaCl2, 25 mM NaHCO3, 24 mM HEPES, pH 7.3), and preincubated at 37° C. under 5% CO2 for 30 min. 0.1 μM Phorbol ester (Wako), 1% DPPIV inhibitor (Linco) and a test compound were added to the above-mentioned incubation buffer, and the obtained buffer was added to the cells after the aforementioned preincubation and incubated for 90 min. The culture supernatant was collected and cryopreserved. The concentration of GLP-1 released in the culture supernatant was measured using an ELISA kit (Linco).

rat TGR5 = molecular target: T1, rat TGR5 (Rattus norvegicus, UniProt Q80T02); assay: cAMP production increasing activity in rat type TGR5 expressing CHO cells; type: cell-based; settings: 0.5 h, read-out: cAMP producing activity (control %)
T1 construct: expressed in transfected cells; host or cells: CHO cells
T1 sequence (Q80T02 1-329): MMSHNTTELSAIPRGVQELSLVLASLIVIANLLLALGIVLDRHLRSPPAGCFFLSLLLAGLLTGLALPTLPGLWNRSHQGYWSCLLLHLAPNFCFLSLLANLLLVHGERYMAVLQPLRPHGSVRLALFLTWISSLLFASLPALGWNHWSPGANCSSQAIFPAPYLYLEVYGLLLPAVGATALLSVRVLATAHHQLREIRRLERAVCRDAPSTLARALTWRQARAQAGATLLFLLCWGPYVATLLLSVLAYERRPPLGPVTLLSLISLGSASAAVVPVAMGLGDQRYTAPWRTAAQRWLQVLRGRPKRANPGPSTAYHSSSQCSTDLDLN

[6] = test system: rat intestine primary culture cells; assay: GLP-1 secretion from rat intestine primary culture cells; type: cell-based; settings: test compound 20 μM, 150 min
Method: Terminal ileum and colon mucous membrane were removed from rat (Wistar, male, Charles River Japan, Inc.) and subjected to an enzyme treatment to give a cell dispersion according to the following method.
as §2, with “pipette 7” for “pipette 4”, “1.2 mM” for “1.2 MM”, “for 150” for “for 90”

human TGR5 = molecular target: T2, human TGR5 (Homo sapiens, UniProt Q8TDU6); assay: cAMP production increasing activity in human TGR5 expressing CHO cells; type: cell-based; settings: read-out: EC50 value (concentration necessary to make the cAMP production amount 50%)
T2 construct: expressed in transfected cells; host or cells: CHO cells
T2 sequence (Q8TDU6 1-330): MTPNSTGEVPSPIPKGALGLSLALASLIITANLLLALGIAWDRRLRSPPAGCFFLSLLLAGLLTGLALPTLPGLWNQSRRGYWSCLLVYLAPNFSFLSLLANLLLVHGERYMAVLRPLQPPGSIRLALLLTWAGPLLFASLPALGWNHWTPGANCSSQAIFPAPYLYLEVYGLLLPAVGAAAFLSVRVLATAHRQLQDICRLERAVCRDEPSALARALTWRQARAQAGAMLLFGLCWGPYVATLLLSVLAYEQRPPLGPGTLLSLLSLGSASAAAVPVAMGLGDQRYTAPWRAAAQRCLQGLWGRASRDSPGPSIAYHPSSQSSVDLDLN

SMILES: O=S(=O)(c1cc(C(F)(F)F)cc(C(F)(F)F)c1)N1CCOc2nccc(-c3ccccc3)c2C1 [Example 22C, 4-{[3,5-bis(trifluoromethyl)phenyl]sulfonyl}-6-phenyl-2,3,4,5-tetrahydropyrido[3,2-f][1,4]oxazepine]
- cAMP production increasing activity (%) (NCI-H716 cells [1]): 100%
- GLP-1 secretion increase (%) (NCI-H716 cells [2]): 127%
- cAMP producing activity (control %) (guinea pig TGR5): 101 control %
- TNF α [3]: 66 pg/mL
- IL-6 [4]: 170 pg/mL
- GLP-1 (% relative to non-addition) [5]: 313 % relative to non-addition

SMILES: CC(c1cc(C(F)(F)F)cc(C(F)(F)F)c1)N1CCOc2nccc(-c3ccccc3)c2C1.Cl (centres unmarked) [Example 33C, 4-{1-[3,5-bis(trifluoromethyl)phenyl]ethyl}-6-phenyl-2,3,4,5-tetrahydropyrido[3,2-f][1,4]oxazepine hydrochloride]
- cAMP producing activity (control %) (guinea pig TGR5): 111 control %
- activation at 2 µM (rat TGR5): 149%
- GLP-1 (% relative to non-addition) [6]: 214 % relative to non-addition
- pEC50 (human TGR5): > 7.00

SMILES: CC(=O)NCc1cccc(C2OC(CC(=O)NCc3ccccc3C(F)(F)F)C(=O)N(CC(C)(C)C)c3ccc(Cl)cc32)c1 (stereo not drawn) [Example 14, 2-[3,5-trans-5-[3-(acetylaminomethyl)phenyl]-7-chloro-1-neopentyl-2-oxo-1,2,3,5-tetrahydro-4,1-benzoxazepin-3-yl]-N-[2-(trifluoromethyl)benzyl]acetamide]
- cAMP production increasing activity (%) (NCI-H716 cells [1]): 104%
- GLP-1 secretion increase (%) (NCI-H716 cells [2]): 157%
- cAMP producing activity (control %) (guinea pig TGR5): 76 control %
- TNF α [3]: 83 pg/mL
- IL-6 [4]: 260 pg/mL
- GLP-1 (% relative to non-addition) [5]: 167 % relative to non-addition
- pEC50 (human TGR5): > 7.00
